In paper PMC7603451, “A novel human pluripotent stem cell-based assay to predict developmental toxicity” (Archives of Toxicology, 2020):
pIC50: −log10 of the molar value. Like-named read-outs stand apart in the source and are kept apart here. Each block holds one molecule with its values, some of them ahead of it.

How the values were obtained:
BIONi010-C EBs = test: EB volume after exposure, BIONi010-C; type: cell-based, human
Procedure: (§1) The average of 32 EBs per condition was analyzed. […] EB size was analysed using a one-way ANOVA without matching and multiple comparisons with Dunnett’s correction.

IMR90-4 EBs = test: EB volume after exposure, IMR90-4; type: cell-based, human; settings: for concentration with effect on EB volume: IMR90-4, last day of assay
Procedure: as §1

[1] = tested on: BIONi010-C hiPSC embryoid bodies differentiating into cardiomyocytes; test: PluriBeat assay, beat score of EBs, BIONi010-C
Procedure: (§2) Cardiac differentiation was performed as published (Fischer et al. [2018]) with slight modifications. Briefly, hiPSC were harvested from culture dishes with good colony morphology (day 5–6 after split) by removing medium and adding Gibco™ TrypLE™ Select (Thermo Fisher Scientific) for 1–2 min. As soon as single cells appeared at the borders of the colonies, TrypLE was removed by suction and the cells harvested as single cells in mTeSR-ROCK (mTeSR1 with 10 µM Y27632 dihydrochloride). Cells were counted and 5 × 10^4 cells/ml were seeded at 100 µl per well into a 96-well Polystyrene Conical Bottom MicroWell™ Plate (249,952, Thermo Fisher Scientific). The plates were centrifuged at 500g for 5 min at room temperature. After 20 h of incubation, EBs had formed (one EB per well) and cardiac differentiation was induced by exchanging 80 µl medium to D0 medium. All medium recipes are included in supplementary Table 1. After 24 ± 2 h, 80 µl medium was exchanged to TS medium. After 24 ± 2 h, 80 µl medium were exchanged to Wnt medium. After 24 ± 2 h, 80 µl medium was exchanged with TS medium. Three days later (72 ± 2 h), 60 µl medium was exchanged with 80 µl fresh TS medium added per well. The following day beating of the cardiomyocyte containing EBs was scored.
(§3) Test compounds were added to the specific daily differentiation medium before medium exchange on the 96-well plates. Vehicle was kept constant across the plates at 0.1%. Thirty-two EBs were exposed to each concentration in each experiment. On the last day of the assay, the beat score was determined as follows: Each EB was observed until contraction was seen, though for a maximum of 10 s. If no movement was seen, the beat score 0 was given. If the entire area of the sphere contracted, a beat score of 2 was given. Everything in between was given a score of 1.
(§4) The beat score for each condition was determined as the average beat score of the 32 EBs. All experiments were performed in biological triplicates if not stated otherwise. For gene expression analysis and compound testing, data from 32 EBs (= 32 wells each containing one EB) were analyzed for a given concentration or time point.
(§5) IC25 values were defined as absolute IC25 values giving the concentration that inhibits the beat score by 25%. […] Calculations were based on the beat score of > 90 EBs from three independent experiments per cell line.
(§6) The following analysis was performed in the statistical program R-studio: To analyze the impact of the test compounds on the beat score, we performed an ordinal logistic regression using the polr package in R with beat score and concentration as factors on n ≥ 90 EBs from three biological replicates. The LOEC was defined as the lowest observable effect concentration of test compound causing an effect with a p value < 0.05.

IMR90-1 EBs = test: EB volume after exposure, IMR90-1; type: cell-based, human; settings: for concentration with effect on EB volume: IMR90-1, last day of assay
Procedure: as §1

[2] = tested on: EBs made from the three cell lines BIONi010-C, IMR90-1, and IMR90-4; test: PluriBeat assay, statements without a named cell line
Procedure: as §3
For analysis of the EB size, the EBs were imaged with a light microscope after assessing the beat score. The plates were left at room temperature to decrease the beat rate before imaging, thereby decreasing the risk of false small outliers due to contractions. The images were further analyzed with ImageJ, where the diameter of the individual EBs was measured manually. From this, the volume of each EB was calculated and the average of the controls on each plate set to 100% to calculate the volume (%) for the exposed EBs. The average of 32 EBs per condition was analyzed.

[3] = tested on: BIONi010-C hiPSC grown in monolayer; test: Cytotoxicity, CellTiter-Glo 2.0 ATP-based cell viability assay; parameters: species or system human; settings: for concentration showing cytotoxicity: human, 48 h
Procedure: Before initiating tests on cardiomyocyte differentiation for test chemicals, cell viability was determined to ascertain that any further testing was done at non-cytotoxic concentrations. On the day of the experiment, 50 µl/well hESC-Qualified Matrigel (354,277, Corning) was added to flat-bottom 96-well plates (Corning) and incubated at 37 °C and 95% humidity until use. BIONi010-C hiPSC were harvested from a […] by Gibco™ TrypLE™ Select (Thermo Fisher Scientific) and a single-cell suspension was prepared in mTeSR™1 serum-free medium (STEMCELL Technologies). Matrigel was removed from plates and a final concentration of 1 × 10^4 cells/well was added. After 24 h, mTESR1 medium was exchanged for fresh medium. Cell were exposed to the test chemicals after another 24 h and for 48 h in total with a vehicle kept constant across the plates at 0.1%. […] Assay reagent (100 µl/well) was added, plates were left on a shaker table for 2 min and successively for 10 min at room temperature. Lysates were transferred to white plates and luminescence was measured (EnSpire, Perkin Elmer).

[4] = tested on: IMR90-1 hiPSC embryoid bodies differentiating into cardiomyocytes; test: PluriBeat assay, beat score of EBs, IMR90-1
Procedure: as §2, §3, §4, §5, §6

mouse ESCs = settings: cited from earlier work
[5] = tested on: IMR90-4 hiPSC embryoid bodies differentiating into cardiomyocytes; test: PluriBeat assay, beat score of EBs, IMR90-4; settings: for effect on beat score: up to maximum concentration tested
Procedure: as §2, §3, §4, §5, §6

[6] = cited from earlier work
hESCs = tested on: hESCs; parameters: method as in Kameoka et al. [2014]; settings: hESC monolayer, 3 days; ref Kameoka et al. [2014]; cited from earlier work
hiPSC = settings: cited from earlier work
[7] = tested on: in vitro assays for developmental toxicity; settings: previous in vitro developmental toxicity studies, cited from earlier work
rat embryos = tested on: rat embryos; parameters: method as in Rettie et al. [1986]; settings: ex vivo rat embryos, gestation day 10; ref Rettie et al. [1986]; cited from earlier work
[8] = human, 8 days (beat score read on the last day of the assay)
[9] = IMR90-4, beat score on last day of assay, lowest concentration with p < 0.05

Structure (SMILES): Fc1ccc([C@]2(Cn3cncn3)O[C@H]2c2ccccc2Cl)cc1 (racemic) [Epoxiconazole, epoxiconazole]
effect on EB volume (BIONi010-C EBs): significantly smaller spheres
effect on EB volume (IMR90-4 EBs): significantly smaller spheres
LOEC ([1]; BIONi010-C, beat score on last day of assay, lowest concentration with p < 0.05): 5 µM
effect on EB volume (IMR90-1 EBs): non-significant trend
lowest concentration decreasing the beating (LOEC) ([2]; beat score, cell line not stated): 1.3 µM
proportion of beating cardiac EBs [2, 8]: ~0%
concentration showing cytotoxicity [3]: ≥ 50 µM
LOEC ([4]; IMR90-1, beat score on last day of assay, lowest concentration with p < 0.05): 1.3 µM
concentration at which EBs stopped beating ([4]; human, 7 days): 2.5 µM
embryotoxicity in the mEST (mouse ESCs): weakly embryotoxic
pIC50 (mouse ESCs; mEST based on mouse ESCs, ref Dreisig et al. [2013]): 4.47
LOEC [5, 9]: 1.3 µM
concentration at which EBs stopped beating ([5]; human, 7 days): 2.5 µM

concentration with significant decrease in EB volume (BIONi010-C EBs; BIONi010-C, last day of assay): ≥ 2.3 µM
concentration with effect on EB volume (IMR90-4 EBs): ≥ 18 µM
concentration with effect on EB volume (IMR90-1 EBs): ≥ 2.3 µM
decrease of EB volume ([2]; human, 7 days, 2.3 µM): ~60%
effect on beat score ([5]; IMR90-4): non-significant trend
IC25 (absolute inhibition concentration of 25%) with 95% confidence intervals ([5]; human, 7 days): > 36 µM
Structure (SMILES): O=C1CCC(N2C(=O)c3ccccc3C2=O)C(=O)N1 (stereo not shown) [Thalidomide, thalidomide]
clinical plasma concentrations for therapeutic use ([6]; human, ref Chung et al. [2004], Kodama et al. [2009]): 1 to 6 µM
internal exposure ([6]; regular dose for pregnant women of 200 mg, ref Teo et al. [2004]): 4.7 µM
LOEC ([1]; human, 7 days): 2.3 µM
lowest concentration decreasing the beating (LOEC) [2, 8]: 2.3 µM
effect on viability ([3]; BIONi010-C monolayer, 48 h exposure, 25, 50, 100 and 200 µM): did not reduce viability in any of the concentrations tested
concentration showing cytotoxicity [3]: > 200 µM
pIC50 (hESCs): 6.30
LOEC ([4]; human, 7 days): 2.3 µM
pIC50 (hiPSC; original EST protocol, ref Aikawa et al. [2014]): 3.35
pIC50 (hiPSC; ref Aikawa [2020]): 5.26
LOEC [5, 9]: no LOEC could be determined
LOEC ([5]; human, 7 days): > 36 µM

effect on EB volume (BIONi010-C EBs; BIONi010-C, last day of assay): did not lead to apparent effects
concentration with effect on EB volume (IMR90-4 EBs): 300 µM
IC25 (absolute inhibition concentration of 25%) with 95% confidence intervals ([1]; human, 7 days): > 300 µM
concentration with effect on EB volume (IMR90-1 EBs): 200 µM
IC25 (absolute inhibition concentration of 25%) with 95% confidence intervals ([4]; human, 7 days): > 300 µM
IC25 (absolute inhibition concentration of 25%) with 95% confidence intervals ([5]; human, 7 days): > 300 µM
Structure (SMILES): CCCC(CCC)C(=O)O [Valproic acid, valproic acid]
therapeutic serum levels ([6]; human, ref Dasgupta [2016]): around 700 µM
effect on beat score ([1]; BIONi010-C, up to maximum concentration tested): did not lead to a significant decrease in beat score
LOEC ([1]; human, 7 days): > 300 µM
pIC50 ([7]; ref Aikawa et al. [2014], Shinde et al. [2016]): 3.00 to 3.06
pIC50 ([7]; ref Uibel et al. [2010], Palmer et al. [2013], Kameoka et al. [2014], Aikawa [2020]): 3.69 to 5.52
reduction of viability ([3]; BIONi010-C monolayer, 48 h exposure, 400 µM): more than 20%
concentration showing cytotoxicity [3]: above 300 µM
effect on beat score ([4]; IMR90-1, up to maximum concentration tested): did not lead to a significant decrease in beat score
LOEC ([4]; human, 7 days): > 300 µM
concentration with toxic effects (rat embryos): 800 µM
effect on beat score ([5]; IMR90-4): did not lead to a significant decrease in beat score
LOEC ([5]; human, 7 days): > 300 µM
